From the NIST ThermoML archive (doi:10.1021/je9006713)
Where “and” joins values, the source holds several entries; their conditions need not be identical. Equal values may be shown once.

Experiment: mn = molality of the nth substance listed, in mol/kg
Conditions: Liquid, glass piezometer

[I-].[NH4+] [ammonium iodide] + N
mass density
Conditions	303.15 K	313.15 K	323.15 K	333.15 K	343.15 K	353.15 K	363.15 K	373.15 K
10000 kPa, m1 = 0.867	698.2 kg/m3	683.7 kg/m3	668.4 kg/m3	650.5 kg/m3	632.1 kg/m3	615.5 kg/m3	593.9 kg/m3	579.5 kg/m3
10000 kPa, m1 = 1.827	777.3 kg/m3	762.9 kg/m3	748.7 kg/m3	732.5 kg/m3	716.4 kg/m3	700.1 kg/m3	680.1 kg/m3	666.9 kg/m3
10000 kPa, m1 = 3.103	870.7 kg/m3	857.4 kg/m3	844.3 kg/m3	829.3 kg/m3	814.6 kg/m3	797.7 kg/m3	780.9 kg/m3	768.1 kg/m3
10000 kPa, m1 = 4.856	988.2 kg/m3	974.7 kg/m3	960.5 kg/m3	947.6 kg/m3	933.1 kg/m3	917.8 kg/m3	903.2 kg/m3	889.8 kg/m3
10000 kPa, m1 = 7.271	1109 kg/m3	1097.5 kg/m3	1085.9 kg/m3	1075.9 kg/m3	1062.2 kg/m3	1049.9 kg/m3	1037.1 kg/m3	1026.1 kg/m3
10000 kPa, m1 = 11.18	1234 kg/m3	1222.9 kg/m3	1212.3 kg/m3	1199.8 kg/m3	1188.9 kg/m3	1177.9 kg/m3	1166.7 kg/m3	1155.3 kg/m3
10000 kPa, m1 = 16.46	1329.5 kg/m3	1322 kg/m3	1312 kg/m3	1302.5 kg/m3	1293.1 kg/m3	1284.9 kg/m3	1274.7 kg/m3	1265.9 kg/m3
15000 kPa, m1 = 0.867	702.3 kg/m3	688 kg/m3	672.8 kg/m3	655.7 kg/m3	638 kg/m3	621.8 kg/m3	601.7 kg/m3	587.3 kg/m3
15000 kPa, m1 = 1.827	780.7 kg/m3	766.9 kg/m3	752.7 kg/m3	737 kg/m3	721.7 kg/m3	705.7 kg/m3	687.2 kg/m3	674 kg/m3
15000 kPa, m1 = 3.103	874.3 kg/m3	861.1 kg/m3	848.1 kg/m3	833.5 kg/m3	818.9 kg/m3	803 kg/m3	786.3 kg/m3	773.7 kg/m3
15000 kPa, m1 = 4.856	992.3 kg/m3	978.5 kg/m3	964.8 kg/m3	951.7 kg/m3	937.1 kg/m3	922.1 kg/m3	907.9 kg/m3	894.4 kg/m3
15000 kPa, m1 = 7.271	1112.4 kg/m3	1100.9 kg/m3	1089.2 kg/m3	1078.8 kg/m3	1065.7 kg/m3	1053.5 kg/m3	1040.7 kg/m3	1029.7 kg/m3
15000 kPa, m1 = 11.18	1236.7 kg/m3	1225.9 kg/m3	1214.9 kg/m3	1202.6 kg/m3	1192.1 kg/m3	1181 kg/m3	1169.8 kg/m3	1158.5 kg/m3
15000 kPa, m1 = 16.46	1332.2 kg/m3	1323.9 kg/m3	1314.6 kg/m3	1305 kg/m3	1296 kg/m3	1287.4 kg/m3	1277.2 kg/m3	1268.6 kg/m3
20000 kPa, m1 = 0.867	706.3 kg/m3	691.9 kg/m3	677 kg/m3	660.8 kg/m3	643.7 kg/m3	627.9 kg/m3	609.6 kg/m3	595.1 kg/m3
20000 kPa, m1 = 1.827	783.9 kg/m3	770.7 kg/m3	756.8 kg/m3	741.3 kg/m3	726.9 kg/m3	711.2 kg/m3	694.2 kg/m3	681 kg/m3
20000 kPa, m1 = 3.103	877.8 kg/m3	864.6 kg/m3	852 kg/m3	837.7 kg/m3	823.2 kg/m3	808.3 kg/m3	791.7 kg/m3	779.4 kg/m3
20000 kPa, m1 = 4.856	996.2 kg/m3	982.3 kg/m3	969 kg/m3	955.5 kg/m3	941.1 kg/m3	926.5 kg/m3	912.5 kg/m3	898.9 kg/m3
20000 kPa, m1 = 7.271	1115.2 kg/m3	1103.9 kg/m3	1092.5 kg/m3	1081.7 kg/m3	1069.2 kg/m3	1056.9 kg/m3	1044.1 kg/m3	1033.2 kg/m3
20000 kPa, m1 = 11.18	1238.9 kg/m3	1228.8 kg/m3	1217 kg/m3	1205.5 kg/m3	1194.9 kg/m3	1183.7 kg/m3	1172.8 kg/m3	1161.6 kg/m3
20000 kPa, m1 = 16.46	1334.5 kg/m3	1326.5 kg/m3	1316.8 kg/m3	1307.6 kg/m3	1298.5 kg/m3	1289.9 kg/m3	1279.6 kg/m3	1271 kg/m3
25000 kPa, m1 = 0.867	710.1 kg/m3	695.7 kg/m3	681.3 kg/m3	666 kg/m3	649.4 kg/m3	634.3 kg/m3	617.4 kg/m3	603.1 kg/m3
25000 kPa, m1 = 1.827	787.4 kg/m3	774.7 kg/m3	760.7 kg/m3	745.9 kg/m3	731.9 kg/m3	716.6 kg/m3	701.2 kg/m3	687.8 kg/m3
25000 kPa, m1 = 3.103	881.1 kg/m3	867.8 kg/m3	855.9 kg/m3	841.8 kg/m3	827.6 kg/m3	813.5 kg/m3	797.3 kg/m3	785.2 kg/m3
25000 kPa, m1 = 4.856	999.8 kg/m3	986.1 kg/m3	973.3 kg/m3	959.4 kg/m3	945.1 kg/m3	931 kg/m3	916.8 kg/m3	903.4 kg/m3
25000 kPa, m1 = 7.271	1118 kg/m3	1107.3 kg/m3	1095.5 kg/m3	1084.6 kg/m3	1072.4 kg/m3	1060.4 kg/m3	1047.4 kg/m3	1036.7 kg/m3
25000 kPa, m1 = 11.18	1241.2 kg/m3	1231.4 kg/m3	1219.2 kg/m3	1208 kg/m3	1197.3 kg/m3	1186.5 kg/m3	1175.5 kg/m3	1164.3 kg/m3
25000 kPa, m1 = 16.46	1336.8 kg/m3	1329.2 kg/m3	1319.4 kg/m3	1310.2 kg/m3	1301.4 kg/m3	1292.4 kg/m3	1281.7 kg/m3	1273.4 kg/m3
30000 kPa, m1 = 0.867	713.7 kg/m3	699.6 kg/m3	685.5 kg/m3	671.3 kg/m3	654.8 kg/m3	640.4 kg/m3	625.2 kg/m3	610.8 kg/m3
30000 kPa, m1 = 1.827	791 kg/m3	778.6 kg/m3	764.7 kg/m3	749.9 kg/m3	737 kg/m3	721.9 kg/m3	708.4 kg/m3	694.7 kg/m3
30000 kPa, m1 = 3.103	884.5 kg/m3	871.3 kg/m3	859.8 kg/m3	845.6 kg/m3	831.8 kg/m3	818.7 kg/m3	802.8 kg/m3	790.9 kg/m3
30000 kPa, m1 = 4.856	1003.5 kg/m3	989.9 kg/m3	977.3 kg/m3	963.1 kg/m3	949.2 kg/m3	935.2 kg/m3	921.1 kg/m3	907.8 kg/m3
30000 kPa, m1 = 7.271	1120.4 kg/m3	1110.4 kg/m3	1098.5 kg/m3	1087.3 kg/m3	1075.2 kg/m3	1063.5 kg/m3	1050.5 kg/m3	1039.9 kg/m3
30000 kPa, m1 = 11.18	1243.5 kg/m3	1233.7 kg/m3	1221.4 kg/m3	1210.2 kg/m3	1199.8 kg/m3	1188.9 kg/m3	1177.9 kg/m3	1166.8 kg/m3
30000 kPa, m1 = 16.46	–	1338.7 kg/m3 and 1331.4 kg/m3	1321.6 kg/m3	1312.4 kg/m3	1303.9 kg/m3	1294.5 kg/m3	1283.9 kg/m3	1275.8 kg/m3
